# In ChEMBL document CHEMBL1201862, “PubChem BioAssay data set” (2004):
# The source made the active and inactive calls.
# What was measured:
# [1] = CAL PDZ domain peptide-binding inhibitors, dose response, biochemical, fluorescence polarization, untagged CAL PDZ, cherry-pick, set 2 (AID 602254); format: functional
# Beta-lactamase [2] = target: Beta-lactamase (Pseudomonas aeruginosa, UniProt Q79MP6);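 further: biochemical dose-response test of metallo-beta-lactamase enzyme inhibition, read out by epi-absorbance; purified recombinant IMP-1 metallo-beta-lactamase with nitrocefin as substrate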
# [3] = target: 72 kDa type IV collagenase (Homo sapiens, UniProt P08253); assay: Dose Response validation of uHTS RPN11 inhibitor hits using a MMP-2 Fluorescence assay.; format: functional
# Prothrombin = Prothrombin (Bos taurus, UniProt P00735); assay: thrombin inhibition, dose response, biochemical, fluorescence polarization, uHTS hits (AID 602369); format: functional
# [4] = target: T1, Low molecular weight phosphotyrosine protein phosphatase (Homo sapiens, UniProt P24666); format: functional; details: read-out: IC50_Mean
# T1 sequence (P24666 whole entry): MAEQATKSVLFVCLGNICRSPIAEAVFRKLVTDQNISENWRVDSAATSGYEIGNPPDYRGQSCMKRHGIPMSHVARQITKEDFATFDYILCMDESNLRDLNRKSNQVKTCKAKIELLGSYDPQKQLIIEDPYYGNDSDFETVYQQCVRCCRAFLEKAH
# [5] = target: T1, Low molecular weight phosphotyrosine protein phosphatase; format: functional; details: read-out: IC50_Mean; remark: listed apart in the source
# [6] = target: 26S proteasome non-ATPase regulatory subunit 14 (Homo sapiens, UniProt O00487); assay: inhibition of proteasome subunit RPN11 – biochemical, fluorescence polarization, uHTS hits, confirmation (AID 602368); format: functional
# Beta Lactamase = Beta Lactamase (Pseudomonas aeruginosa, UniProt Q932Y6);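 further: confirmatory high-throughput screen measuring VIM-2 metallo-beta-lactamase inhibition by epi-absorbance in dose response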
# Beta-lactamase [7] = target: Beta-lactamase (Salmonella choleraesuis (strain SC-B67), UniProt Q5J463)
# [8] = target: Hepatocyte nuclear factor 4-alpha (Homo sapiens, UniProt P41235); format: functional, cell-based;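 further: biochemical luminescence-based dose-response counterscreen measuring inhibition of HNF4 dimerization, run alongside a screen for blockers of ABHD5–perilipin-5 interaction; split luciferase complementation of HNF4 fusion proteins in cell lysate measuring dimerization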
# [9] = target: T2, ATP-dependent translocase ABCB1 (Homo sapiens, UniProt P08183); assay: ABCB1 efflux inhibitor potency, dose response, Jurkat-DNR cells, JC-1, flow cytometry, set 2 (AID 504569); format: functional; details: read-out: EC50_MICROM_;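 further: potency of pump inhibitors that raise cellular JC-1 green fluorescence up to the nicardipine level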
# [10] = target: T2, ATP-dependent translocase ABCB1; assay: ABCG2 efflux pump inhibitor potency, dose response, Ig-MXP3 cells, JC-1, flow cytometry, set 2 (AID 504566); format: functional; details: read-out: EC50_MICROM_;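 further: flow cytometry median green fluorescence of retained JC-1 dye; potency of efflux pump inhibition measured as rising substrate retention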
# Melanocortin receptor 4 = Melanocortin receptor 4 (Homo sapiens, UniProt P32245); assay: MC4R antagonist potency on cAMP, dose response, cell-based, TR-FRET, biased antagonists (AID 602298); format: functional;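 further: antagonist potency against agonist-stimulated cAMP production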
# [11] = nonselective inhibitors of cellular cAMP signaling, dose response, counter-screen for MC4R biased antagonist project, cell-based, TR-FRET cAMP detection (AID 602305); format: functional;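 further: U2OS cells stimulated with forskolin near its EC80 as the cAMP inducer; potency is for inhibition of forskolin-stimulated cAMP signaling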
# T2 sequence (P08183 whole entry): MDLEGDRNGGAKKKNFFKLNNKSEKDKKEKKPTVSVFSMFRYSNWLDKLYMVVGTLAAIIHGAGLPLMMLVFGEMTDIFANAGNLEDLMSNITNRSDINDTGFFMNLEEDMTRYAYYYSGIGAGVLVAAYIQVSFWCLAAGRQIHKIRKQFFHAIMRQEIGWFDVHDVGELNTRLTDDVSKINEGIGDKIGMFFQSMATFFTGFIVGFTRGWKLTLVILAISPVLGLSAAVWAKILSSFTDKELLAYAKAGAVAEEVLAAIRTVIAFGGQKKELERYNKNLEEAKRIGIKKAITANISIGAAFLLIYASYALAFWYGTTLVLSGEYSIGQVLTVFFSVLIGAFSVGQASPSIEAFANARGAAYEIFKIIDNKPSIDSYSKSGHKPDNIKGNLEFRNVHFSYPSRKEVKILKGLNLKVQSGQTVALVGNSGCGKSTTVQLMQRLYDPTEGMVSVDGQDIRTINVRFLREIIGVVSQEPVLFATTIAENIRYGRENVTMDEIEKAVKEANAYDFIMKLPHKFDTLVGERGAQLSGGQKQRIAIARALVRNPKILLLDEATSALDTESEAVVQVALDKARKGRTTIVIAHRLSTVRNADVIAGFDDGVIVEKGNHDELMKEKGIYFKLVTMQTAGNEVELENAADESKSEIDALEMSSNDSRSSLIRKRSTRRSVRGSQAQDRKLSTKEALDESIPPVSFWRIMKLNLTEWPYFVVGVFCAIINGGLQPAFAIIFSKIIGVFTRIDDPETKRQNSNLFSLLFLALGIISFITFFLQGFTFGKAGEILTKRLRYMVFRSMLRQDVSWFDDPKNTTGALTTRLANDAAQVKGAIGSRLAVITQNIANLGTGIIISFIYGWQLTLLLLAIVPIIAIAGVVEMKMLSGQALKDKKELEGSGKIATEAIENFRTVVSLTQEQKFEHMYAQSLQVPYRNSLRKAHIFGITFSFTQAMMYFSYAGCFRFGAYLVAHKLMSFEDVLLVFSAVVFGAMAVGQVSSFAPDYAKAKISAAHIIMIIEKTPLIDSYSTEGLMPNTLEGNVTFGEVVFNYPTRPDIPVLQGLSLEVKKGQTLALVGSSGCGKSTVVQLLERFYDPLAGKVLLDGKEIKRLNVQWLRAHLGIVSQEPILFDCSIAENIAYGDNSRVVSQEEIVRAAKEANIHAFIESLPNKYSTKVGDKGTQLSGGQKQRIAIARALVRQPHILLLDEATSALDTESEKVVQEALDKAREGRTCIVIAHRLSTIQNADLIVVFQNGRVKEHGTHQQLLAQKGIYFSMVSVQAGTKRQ
# Chain of Beta-lactamase (Salmonella choleraesuis (strain SC-B67), UniProt Q5J463) (Q5J463 whole entry, the tested form may be a part): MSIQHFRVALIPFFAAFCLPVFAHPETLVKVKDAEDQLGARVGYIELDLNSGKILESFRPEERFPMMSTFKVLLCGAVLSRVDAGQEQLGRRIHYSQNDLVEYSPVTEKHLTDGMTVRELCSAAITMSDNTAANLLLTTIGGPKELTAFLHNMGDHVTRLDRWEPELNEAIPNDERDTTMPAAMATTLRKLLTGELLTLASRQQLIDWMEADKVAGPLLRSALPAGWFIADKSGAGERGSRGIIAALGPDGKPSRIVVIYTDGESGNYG
# Chain of Hepatocyte nuclear factor 4-alpha (P41235 whole entry, the tested form may be a part): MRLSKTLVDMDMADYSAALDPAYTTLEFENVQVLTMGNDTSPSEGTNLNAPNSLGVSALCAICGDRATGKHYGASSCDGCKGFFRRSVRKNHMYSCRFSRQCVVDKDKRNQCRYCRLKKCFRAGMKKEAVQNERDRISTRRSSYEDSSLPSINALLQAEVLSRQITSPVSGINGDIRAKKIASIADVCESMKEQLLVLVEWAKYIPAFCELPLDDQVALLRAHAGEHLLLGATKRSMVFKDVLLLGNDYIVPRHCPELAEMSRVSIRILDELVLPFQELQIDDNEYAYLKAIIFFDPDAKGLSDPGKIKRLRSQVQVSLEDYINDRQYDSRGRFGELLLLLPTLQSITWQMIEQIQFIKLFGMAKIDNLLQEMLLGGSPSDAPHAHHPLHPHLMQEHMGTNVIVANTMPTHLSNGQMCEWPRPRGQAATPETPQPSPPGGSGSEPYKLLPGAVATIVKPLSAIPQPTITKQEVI
# Chain of 26S proteasome non-ATPase regulatory subunit 14 (O00487 whole entry): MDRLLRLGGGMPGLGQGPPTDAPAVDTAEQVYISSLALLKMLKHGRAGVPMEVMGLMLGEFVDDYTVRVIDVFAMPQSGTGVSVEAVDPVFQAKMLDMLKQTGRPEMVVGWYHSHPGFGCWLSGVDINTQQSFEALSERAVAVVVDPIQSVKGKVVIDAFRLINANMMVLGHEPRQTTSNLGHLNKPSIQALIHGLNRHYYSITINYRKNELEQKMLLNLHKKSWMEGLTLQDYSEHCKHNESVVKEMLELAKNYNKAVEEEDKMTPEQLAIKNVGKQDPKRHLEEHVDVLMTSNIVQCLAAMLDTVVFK
# Chain of Melanocortin receptor 4 (P32245 whole entry): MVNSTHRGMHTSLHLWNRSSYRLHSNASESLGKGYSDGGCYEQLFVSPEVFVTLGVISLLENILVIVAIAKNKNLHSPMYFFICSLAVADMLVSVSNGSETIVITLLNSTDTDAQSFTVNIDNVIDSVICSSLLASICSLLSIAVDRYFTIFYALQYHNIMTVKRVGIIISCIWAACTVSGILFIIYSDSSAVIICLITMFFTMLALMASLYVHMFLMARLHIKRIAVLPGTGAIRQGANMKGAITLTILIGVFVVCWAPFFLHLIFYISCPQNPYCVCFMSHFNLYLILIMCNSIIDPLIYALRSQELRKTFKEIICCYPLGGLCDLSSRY
# Chain of 72 kDa type IV collagenase (P08253 whole entry): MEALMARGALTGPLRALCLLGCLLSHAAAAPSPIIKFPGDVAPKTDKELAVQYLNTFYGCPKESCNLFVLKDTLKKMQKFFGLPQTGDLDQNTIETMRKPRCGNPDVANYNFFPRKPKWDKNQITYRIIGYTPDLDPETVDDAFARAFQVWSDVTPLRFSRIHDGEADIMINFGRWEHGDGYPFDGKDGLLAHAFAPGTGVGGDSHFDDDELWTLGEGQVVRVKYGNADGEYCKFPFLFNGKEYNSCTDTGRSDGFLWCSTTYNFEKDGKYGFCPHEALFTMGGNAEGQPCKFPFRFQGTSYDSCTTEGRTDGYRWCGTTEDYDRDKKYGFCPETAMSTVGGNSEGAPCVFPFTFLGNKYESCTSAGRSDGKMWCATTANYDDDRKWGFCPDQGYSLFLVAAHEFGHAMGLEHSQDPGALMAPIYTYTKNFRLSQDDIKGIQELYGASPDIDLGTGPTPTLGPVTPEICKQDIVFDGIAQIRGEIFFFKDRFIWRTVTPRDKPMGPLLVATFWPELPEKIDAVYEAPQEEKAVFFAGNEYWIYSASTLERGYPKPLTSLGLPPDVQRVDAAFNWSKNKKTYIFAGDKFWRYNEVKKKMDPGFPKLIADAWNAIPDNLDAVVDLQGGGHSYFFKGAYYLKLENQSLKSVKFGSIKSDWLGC
# Chain of Beta-lactamase (Pseudomonas aeruginosa, UniProt Q79MP6) (Q79MP6 whole entry): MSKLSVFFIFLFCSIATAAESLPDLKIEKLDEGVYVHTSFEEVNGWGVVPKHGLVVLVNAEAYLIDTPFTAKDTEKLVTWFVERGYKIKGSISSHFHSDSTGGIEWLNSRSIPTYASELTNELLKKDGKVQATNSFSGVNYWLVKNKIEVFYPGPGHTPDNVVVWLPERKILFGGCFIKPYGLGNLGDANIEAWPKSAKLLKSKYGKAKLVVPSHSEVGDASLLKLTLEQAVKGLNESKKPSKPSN
# Chain of Beta Lactamase (Q932Y6 whole entry): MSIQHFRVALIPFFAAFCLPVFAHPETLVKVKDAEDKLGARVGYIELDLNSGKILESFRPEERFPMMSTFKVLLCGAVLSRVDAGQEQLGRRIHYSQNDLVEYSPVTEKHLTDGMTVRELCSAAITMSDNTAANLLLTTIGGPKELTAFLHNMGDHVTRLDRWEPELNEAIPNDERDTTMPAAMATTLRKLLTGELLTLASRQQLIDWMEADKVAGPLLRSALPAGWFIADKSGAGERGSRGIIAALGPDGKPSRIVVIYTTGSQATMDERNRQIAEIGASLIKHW
smiles,measurement,setting,value
Cc1ccc(-c2nc(C)sc2CC(=O)OCC(=O)Nc2ccc(F)c(Cl)c2)cc1,AC50,[1],110 µM (active)
COc1ccc(C(=O)Nc2ccc(/C(C)=N/NC(=O)c3ccncc3)cc2)cc1,IC50,Beta-lactamase [2],10.9 µM (inactive)
same,IC50,[3],> 100 µM (inactive)
same,IC50,Prothrombin,> 100 µM (inactive)
same,IC50,[4],> 80 µM (inactive)
same,IC50,[5],8.92 µM (active)
same,IC50,[6],43 µM (active)
same,IC50,Beta Lactamase,> 59.6 µM (inactive)
same,IC50,Beta-lactamase [7],> 59.6 µM (inactive)
CC(C)(C)NC(=O)C(c1cc2ccccc2o1)n1c(=O)c(-c2ccco2)nc2ccccc21 (centres undefined),IC50,[8],1.86 µM (active)
O=C(c1ccco1)N1CCN(c2c3c(nc4cc(-c5cccc(F)c5)nn24)CCC3)CC1,EC50,[9],6.31 µM (active)
same,EC50,[10],7.76 µM (active)
Cc1ccc(-c2nn(-c3ccccc3)cc2NC(=O)CCl)cc1,IC50,Melanocortin receptor 4,> 7.18 µM (active)
same,IC50,[11],> 64.6 µM (inactive)
